Results from article PMC6691788, “Design and synthesis of phthalazine-based compounds as potent anticancer agents with potential antiangiogenic activity via VEGFR-2 inhibition” (Journal of Enzyme Inhibition and Medicinal Chemistry, 2019).
Entries after “also recorded” stand apart in the source; their conditions may differ. Where two headings read alike, the source gives them in different places.

Legend:
CCRF-CEM = assay: NCI 60 cell panel SRB screen; format: cell-based, human; details: Homo sapiens
SF-539 = assay: NCI 60 cell panel SRB screen; format: cell-based, human; details: Homo sapiens, SF-539, 5 log dose
SK-MEL-5 = assay: NCI 60 cell panel SRB screen; format: cell-based; details: Homo sapiens
MCF-7 cells = assay: Cell-cycle analysis by flow cytometry; format: cell-based; details: MCF-7, at GI50 concentration, 24 h and 48 h
Excerpt: The effect of compound (7b and 13c) on the normal cell-cycle progression was characterised using flow cytometric analysis of the DNA ploidy in MCF-7 cells using BD […] ^TM software. […] The observed increase in sub-G1 cell population may imply DNA fragmentation and apoptosis as a potential mechanism for 7b/13c-induced cancer cell death.
The cells then were collected by trypsinization, washed with phosphate buffered saline (PBS), and fixed in ice-cold absolute alcohol. Thereafter, cells were stained, using Cycletest^TM Plus DNA Reagent Kit (BD Biosciences, San Jose, CA), according to the manufacturer’s instructions. Cell cycle distribution was determined using a FACS Calibur flow cytometer (BD Biosciences, San Jose, CA).

OVCAR-4 = assay: NCI 60 cell panel SRB screen; format: cell-based; details: Homo sapiens
EKVX = assay: NCI 60 cell panel SRB screen; format: cell-based, human; details: Homo sapiens, 5 log dose
SK-MEL-2 = assay: NCI 60 cell panel SRB screen; format: cell-based; details: Homo sapiens
LOX IMVI = assay: NCI 60 cell panel SRB screen; format: cell-based; details: Homo sapiens
VEGFR-2 tyrosine kinase = target: T1, VEGFR-2 tyrosine kinase (Homo sapiens, UniProt P35968); assay: In vitro VEGFR-2 tyrosine kinase assay (BPS Bioscience); format: biochemical; details: read-out: VEGFR-2 % inhibition; 10 μM concentration
T1 construct: purchased BPS Bioscience 40301
T1 sequence (P35968 20-1356): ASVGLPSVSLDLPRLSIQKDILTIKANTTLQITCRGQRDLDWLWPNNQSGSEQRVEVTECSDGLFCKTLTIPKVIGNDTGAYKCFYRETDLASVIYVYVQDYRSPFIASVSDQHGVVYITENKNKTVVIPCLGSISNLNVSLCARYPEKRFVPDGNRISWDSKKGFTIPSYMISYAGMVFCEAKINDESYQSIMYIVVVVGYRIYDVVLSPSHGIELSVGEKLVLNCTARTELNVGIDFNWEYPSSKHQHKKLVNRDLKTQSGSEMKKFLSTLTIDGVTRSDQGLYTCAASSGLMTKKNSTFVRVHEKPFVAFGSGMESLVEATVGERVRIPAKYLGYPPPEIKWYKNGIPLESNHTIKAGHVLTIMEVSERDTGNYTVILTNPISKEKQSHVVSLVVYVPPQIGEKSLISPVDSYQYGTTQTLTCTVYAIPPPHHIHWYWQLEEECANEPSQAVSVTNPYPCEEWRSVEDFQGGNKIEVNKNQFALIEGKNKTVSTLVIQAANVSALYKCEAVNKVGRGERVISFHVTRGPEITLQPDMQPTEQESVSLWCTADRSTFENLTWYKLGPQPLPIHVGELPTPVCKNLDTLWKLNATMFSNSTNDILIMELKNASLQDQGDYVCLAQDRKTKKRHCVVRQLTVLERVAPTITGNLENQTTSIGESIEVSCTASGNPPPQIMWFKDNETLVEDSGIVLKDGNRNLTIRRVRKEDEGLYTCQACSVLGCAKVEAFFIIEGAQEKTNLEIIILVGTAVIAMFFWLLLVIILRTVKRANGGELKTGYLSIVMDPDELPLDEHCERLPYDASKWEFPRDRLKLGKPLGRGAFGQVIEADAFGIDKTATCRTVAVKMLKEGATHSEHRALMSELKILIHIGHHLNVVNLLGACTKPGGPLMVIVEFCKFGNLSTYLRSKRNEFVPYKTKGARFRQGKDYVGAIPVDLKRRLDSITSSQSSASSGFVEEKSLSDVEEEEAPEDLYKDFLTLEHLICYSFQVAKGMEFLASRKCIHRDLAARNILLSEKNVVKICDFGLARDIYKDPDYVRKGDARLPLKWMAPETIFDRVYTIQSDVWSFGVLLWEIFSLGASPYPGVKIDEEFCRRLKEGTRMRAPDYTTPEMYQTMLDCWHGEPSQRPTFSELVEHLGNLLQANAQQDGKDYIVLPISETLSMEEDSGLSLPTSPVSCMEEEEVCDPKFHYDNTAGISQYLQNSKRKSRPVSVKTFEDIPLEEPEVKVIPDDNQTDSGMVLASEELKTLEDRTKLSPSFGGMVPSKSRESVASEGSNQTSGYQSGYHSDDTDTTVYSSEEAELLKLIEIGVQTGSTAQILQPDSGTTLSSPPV
Method in brief: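 Single-point screen at 10 µM: recombinant VEGFR with poly(Glu,Tyr) 0.2 mg/ml, 10 μM ATP, Tris pH 7.4, MgCl2, BSA, 1% DMSO, 40 min at 30 °C; residual ATP read by Kinase-Glo Plus luminescence.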

NCI-H460 = assay: NCI 60 cell panel SRB screen; format: cell-based; details: Homo sapiens
SK-OV-3 = assay: NCI 60 cell panel SRB screen; format: cell-based; details: Homo sapiens
OVCAR-3 = assay: NCI 60 cell panel SRB screen; format: cell-based; details: Homo sapiens
full NCI 60 cell panel = assay: NCI 60 cell panel SRB screen, whole panel; format: cell-based, human; details: NCI 5-log dose, full 60 cell panel, read-out: GI50 values, range over the tested cell lines
SN12C = assay: NCI 60 cell panel SRB screen; format: cell-based; details: Homo sapiens
HOP-92 = assay: NCI 60 cell panel SRB screen; format: cell-based; details: Homo sapiens
UACC-257 = assay: NCI 60 cell panel SRB screen; format: cell-based; details: Homo sapiens
[1] = 5 log dose, 48 h, read-out: LC50 (the source's name)
[2] = single dose 10 μM, read-out: percent cell growth promotion

Work on O=C(Nc1ccc(Cl)cc1)Nc1ccc(Oc2nncc3ccccc23)cc1 [Compound 7b, 1–(4-Chlorophenyl)-3–(4-(phthalazin-1-yloxy)phenyl)urea] yielded a GI50 (CCRF-CEM; 5 log dose) of 0.32 µM, a CC50 (CCRF-CEM; [1]) of over 100 µM and an activity at 10 µM (CCRF-CEM; [2]) of 8.7%. For the same compound, the GI50 (SF-539) was 0.28 µM, the IC (TGI) (SF-539) was 1.13 µM and the CC50 (SF-539; 48 h, read-out: LC50 (the source's name)) was 3.81 µM. It also gave a GI50 (SK-MEL-5; SK-MEL-5) of 1.02 µM, an IC (TGI) (SK-MEL-5; SK-MEL-5, read-out: TGI) of 2.81 µM and an activity at 10 µM (SK-MEL-5; SK-MEL-5, read-out: percent cell growth promotion) of -43.3%. The CC50 (SK-MEL-5; SK-MEL-5, 5 log dose, 48 h, read-out: LC50 (the source's name)) was 6.56 µM, the “effect on cell-cycle progression” value (MCF-7 cells) was “induce cell cycle arrest at S phase boundary; also recorded: remarkable disruption in cell cycle profile and cell-cycle arrest at S-phase boundary with concurrent time-dependent increase in pre-G cell population” and the GI50 (OVCAR-4; OVCAR-4, 5 log dose) was 0.75 µM. It also gave an IC (TGI) (OVCAR-4; OVCAR-4, 5 log dose) of 3.49 µM, a CC50 (OVCAR-4; OVCAR-4, 5 log dose, 48 h, read-out: LC50 (the source's name)) of 17 µM and an activity at 10 µM (OVCAR-4; OVCAR-4, single dose 10 μM, read-out: percent cell growth promotion) of -20.8%. It also gave a GI50 (EKVX) of 1.61 µM, an IC (TGI) (EKVX) of 4.5 µM and an LC50 (EKVX; 48 h) of over 100 µM. For the same compound, the GI50 (SK-MEL-2) was 1.57 µM, the IC (TGI) (SK-MEL-2; read-out: TGI) was 3.65 µM and the CC50 (SK-MEL-2; SK-MEL-2, 5 log dose, 48 h, read-out: LC50 (the source's name)) was 8.5 µM. For the same compound, the GI50 (LOX IMVI) was 0.16 µM, the CC50 (LOX IMVI; [1]) was 1.63 µM and the IC (TGI) (LOX IMVI; read-out: TGI) was 0.45 µM. For the same compound, the activity at 10 µM (LOX IMVI; read-out: percent cell growth promotion) was -77.3%, the inhibition at 10 µM (VEGFR-2 tyrosine kinase) was 13% and the GI50 (NCI-H460; NCI-H460, 5 log dose) was 2.79 µM. For the same compound, the IC (TGI) (NCI-H460; NCI-H460, 5 log dose) was 8.32 µM, the LC50 (concentration causing 50% cell kill) (NCI-H460; NCI-H460, 5 log dose, 48 h) was 45.5 µM and the activity at 10 µM (NCI-H460; NCI-H460, single dose 10 μM, read-out: percent cell growth promotion) was 21.5%. It also gave a GI50 (SK-OV-3; SK-OV-3, 5 log dose) of 1.74 µM, an IC (TGI) (SK-OV-3; SK-OV-3, 5 log dose) of 5.48 µM and a CC50 (SK-OV-3; SK-OV-3, 5 log dose, 48 h, read-out: LC50 (the source's name)) of 27.2 µM. It also gave an activity at 10 µM (SK-OV-3; SK-OV-3, single dose 10 μM, read-out: percent cell growth promotion) of 56.7%, a GI50 (OVCAR-3; OVCAR-3, 5 log dose) of 0.35 µM and an IC (TGI) (OVCAR-3; OVCAR-3, 5 log dose) of 1.15 µM. For the same compound, the CC50 (OVCAR-3; OVCAR-3, 5 log dose, 48 h, read-out: LC50 (the source's name)) was 3.95 µM, the activity at 10 µM (OVCAR-3; OVCAR-3, single dose 10 μM, read-out: percent cell growth promotion) was -62.8% and the GI50 (full NCI 60 cell panel; Homo sapiens, 60 cell) was 0.15 to 8.41 µM. It also gave a GI50 (full NCI 60 cell panel) of 0.15 to 2.81 µM, a GI50 (SN12C; 5 log dose) of 1.03 µM and an IC (TGI) (SN12C; 5 log dose) of 3.58 µM. The CC50 (SN12C; [1]) was over 100 µM, the activity at 10 µM (SN12C; [2]) was -3.83% and the GI50 (HOP-92; HOP-92, 5 log dose) was 1.64 µM. For the same compound, the IC (TGI) (HOP-92; HOP-92, 5 log dose) was 4.37 µM, the CC50 (HOP-92; HOP-92, 5 log dose, 48 h, read-out: LC50 (the source's name)) was 17.1 µM and the activity at 10 µM (HOP-92; HOP-92, single dose 10 μM, read-out: percent cell growth promotion) was 12.9%. For the same compound, the GI50 (UACC-257; UACC-257) was 0.15 µM, the IC (TGI) (UACC-257; UACC-257, read-out: TGI) was 4.04 µM and the activity at 10 µM (UACC-257; UACC-257, read-out: percent cell growth promotion) was 34.4%. It also gave a CC50 (UACC-257; UACC-257, 5 log dose, 48 h, read-out: LC50 (the source's name)) of 12.9 µM.
